Literature values as cited in patent US7687487B2, “Camptothecin-analog with a novel, “flipped” lactone-stable, E-ring and methods for making and using same” (BioNumerik Pharmaceuticals, Inc., priority 2007, dated 2010).
Entries after “also recorded” stand apart in the source; their conditions may differ. Read-outs that look alike come from different tables or passages of the source.

Assays:
[1] = for Toxicity: et al, * Dose Limiting Toxicity
tumors by Tumor Type = conditions: et al
[2] = versus lactone form
[3] = not given; remark: listed apart in the source
gastrointestinal cancer = conditions: after 2 months (8 or 9 weeks)
[4] = test system: advanced malignant melanoma; conditions: fifteen patients
[5] = 24 hours after administration, once daily for 5 days, 6.5-20 mg/m^2/day

CCc1c2c(nc3ccc(OC(=O)N4CCC(N5CCCCC5)CC4)cc13)-c1cc3c(c(=O)n1C2)COC(=O)[C@]3(O)CC [CPT-11, 7-ethyl-10-[4-(1-piperidino)-1-piperidino]carbonyloxy camptothecin]
Toxicity ([1]; Clavel, 90 min. QDx 3 Q21 Days, 37 Pts., 115 mg/m^2/d (33-115)): neutropenia*; also recorded: diarrhea,; also recorded: vomiting, | Toxicity ([1]; Ohe, 120 hr CI Q3 wks, 36 Pts., 40 mg/m^2/d (5-40)): diarrhea*; also recorded: vomiting,; also recorded: thrombocytopenia; also recorded: Anemia; also recorded: liver | major reported dose-limiting toxicities ([1]; Phase I clinical trials summarised in Table VII): Neutropenia and diarrhea | Tumor Type: Breast, responses (tumors by Tumor Type; Clavel, 37 Pts.): (1 PR) | Tumor Type: Mesothelioma, responses (tumors by Tumor Type; Clavel, 37 Pts.): (1 PR) | Tumor Type: Esophagus, responses (tumors by Tumor Type; Culine, 59 Pts.): (1 PR) cervix | Tumor Type: Ovarian, responses (tumors by Tumor Type; Culine, 59 Pts.): (1 PR) | Tumor Type: cervix, responses (tumors by Tumor Type; Culine, 59 Pts.): (1 PR) renal | Tumor Type: renal, responses (tumors by Tumor Type; Culine, 59 Pts.): (1 PR) | Tumor Type: NS CLC, responses (tumors by Tumor Type; Negoro, 17 Pts.): (2 PRs) | Tumor Type with responses (tumors by Tumor Type; Ohe, 36 Pts.): None | Tumor Type: Colon Ca, responses (tumors by Tumor Type; Rothenberg, 32 Pts.): (2 PRs) | Tumor Type: Cervix Ca, responses (tumors by Tumor Type; Rowinsky, 32 Pts.): (1 PR) | Tumor Type: Colon Cancer, responses (tumors by Tumor Type; Rowinsky, 32 Pts.): (1 PR)

CC[C@@](O)(C(=O)O)c1cc2n(c(=O)c1CO)Cc1cc3ccccc3nc1-2 [carboxylate form of CPT]
reduction of anti-tumor activity [2]: at least 10 fold

CC[C@@]1(O)C(=O)OCc2c1cc1n(c2=O)Cc2cc3ccccc3nc2-1 [CPT sodium]
Cystitis (% of 27 Patients) (5-Day Course, P < 0.05): 48 (P < 0.05) % | Cystitis (% of 34 Patients) (Single Dose method of administration): 24% | persistence of diarrhea (higher doses): ≤ 4 weeks | onset of cystitis after treatment (in vivo): 7 to 10 days | bladder toxicity ([3]; doses of 20 to 30 mg/m^2): dose limiting in three patients | most prominent non-hematologic toxic effect ([3]; fifteen patients, 20-67 mg/m^2 weekly, intravenous push): Cystitis | patients with partial objective improvement (gastrointestinal cancer): only two of their 61 patients | 50% or greater decrease in tumor diameter ([4]; 90-360 mg/m^2 every 2 weeks): None of the patients | myelosuppression ([4]; 90-360 mg/m^2 every 2 weeks): 11 patients | less pronounced transient tumor regression ([4]; no clinical benefit associated): three patients | relation of plasma CPT levels to dose [5]: little relation to the dose given
